The values that follow are results of earlier work, collected in US5441941A, “1,2-dihydroellipticines with activity against CNS specific cancer” (The United States of America as represented by the …, priority 1993, dated 1995).

Data set [1] concerns Sarcoma 180 (solid). The conditions noted are these: in vivo; cited from earlier work.
Data set [2] concerns mouse lymphoid leukemia L-1210. As to conditions: cited from earlier work.
For data set [3], the system named is mammary cancer. The conditions noted are these: in vivo; cited from earlier work.
For data set [4], the system named is B16 melanoma. The conditions noted are these: cited from earlier work.
The subject of data set [5] is P388. The conditions noted are these: cited from earlier work.
The test system of data set [6] is colon carcinoma. The conditions noted are these: cited from earlier work.
Data set [7] has as its system M5076 reticulosarcoma. The conditions noted are these: cited from earlier work.
Data set [8] concerns SF407. As to conditions: human glioma line; cited from earlier work.
Data set [9] has as its system SF375. As to conditions: human glioma line; cited from earlier work.
Data set [10] concerns SF126. The conditions noted are these: human glioma line; cited from earlier work.

The structures appear in SMILES notation. Where two headings read alike, the source gives them in different places.

Take `Cc1c2ccncc2c(C)c2c1[nH]c1ccccc12` [ellipticine, 5, 11-dimethyl-6H-pyrido [4,3-b] carbazole]: the “effect against tumor of animals” value in [1] is given as “effective against the tumor of animals”. Further, the antitumor activity result in data set [2] (mouse L-1210 leukemia) is “effective against the tumor of animals”.

`Cc1c2cc[n+](C)cc2c(C)c2c1[nH]c1ccc(O)cc12` [Celiptium, 2-methyl-9-hydroxyellipticinium acetate]: the “effect against mammary cancer” value in data set [3] was “effective against mammary cancer”.

With `Cc1c2ccncc2c(C)c2c1[nH]c1ccc(O)cc12` [9-hydroxyellipticine, 9-hydroxy-5,11-dimethyl-(6H) -pyrido [4,3-b] carbazole], the antitumor activity entry in [2] (mouse L-1210 leukemia) is “considerably high antitumor properties”.

For `CCN(CC)CC[n+]1ccc2c(C)c3[nH]c4ccc(O)cc4c3c(C)c2c1` [datelliptium, 2-[(2-diethylamino)ethyl]-9-hydroxyellipticinium], the in vivo activity entry in data set [4], in data set [5], in [6] and in data set [7] was “in vivo activity” in each case. The antitumor activity entry in data set [2] (mouse, in vivo) is “in vivo activity”.

For `Cc1c2cc[n+](C)cc2c(C)c2c1[nH]c1ccc(O)cc12` [elliptinium], the in vitro activity entry in [8], in data set [9] and in data set [10] was “in vitro activity” throughout.
